Tested on: Wnt activity
Test: Wnt activity reporter assay (SP5 promoter firefly luciferase in SW480 cells)
Format: cell-based
Conditions: Homo sapiens; SW480 cells bearing SP5 promoter luciferase reporter; 24 h after compound addition; read-out: Wnt inhibition
Text: The above synthesized compounds were screened using the assay procedure for Wnt activity described below.
Reporter cell lines can be generated by stably transducing cells of cancer cell lines (e.g., colon cancer) with a lentiviral construct that include a wnt-responsive promoter driving expression of the firefly luciferase gene.
Lentiviral constructs can be made in which the SP5 promoter, a promoter having eight TCF/LEF binding sites derived from the SP5 promoter, is linked upstream of the firefly luciferase gene. The lentiviral constructs can also include a hygromycin resistance gene as a selectable marker. The SP5 promoter construct can be used to transduce SW480 cells, a colon cancer cell line having a mutated APC gene that generates a truncated APC protein, leading to de-regulated accumulation of β-catenin.
Cultured SW480 cells bearing a reporter construct can be distributed at approximately 10,000 cells per well into 384 well multiwell plates. Compounds from a small molecule compound library can then be added to the wells in half-log dilutions using a three micromolar top concentration. A series of control wells for each cell type receive only buffer and compound solvent. Twenty-four hours after the addition of compound, reporter activity for luciferases can be assayed, for example, by addition of the BrightGlo luminescence reagent (Promega) and the Victor3 plate reader (Perkin Elmer). Readings can be normalized to DMSO only treated cells, and normalized activities can then be used in the IC50 calculations.

| Structure (SMILES) | IC50 [nM] |
| --- | --- |
| CN1CCN(c2cncc3[nH]c(-c4n[nH]c5ccc(-c6cncc(NC(=O)C7CCCCC7)c6)cc45)nc23)CC1 [Compound 263, N-(5-(3-(7-(4-Methylpiperazin-1-yl)-3H-imidazo[4,5-c]pyridin-2-yl)-1H-indazol-5-yl)pyridin-3-yl)cyclohexanecarboxamide] | 86 |
| c1cc(-c2cncc3[nH]c(-c4n[nH]c5ccc(-c6cncc(CN7CCCCC7)c6)cc45)nc23)ccn1 [Compound 164, 2-(5-(5-(Piperidin-1-ylmethyl)pyridin-3-yl)-1H-indazol-3-yl)-7-(pyridin-4-yl)-3H-imidazo[4,5-c]pyridine] | > 6000 |
| CN1CCN(c2cncc3[nH]c(-c4n[nH]c5ccc(-c6cncc(NC(=O)CC(C)(C)C)c6)cc45)nc23)CC1 [Compound 257, 3,3-Dimethyl-N-(5-(3-(7-(4-methylpiperazin-1-yl)-3H-imidazo[4,5-c]pyridin-2-yl)-1H-indazol-5-yl)pyridin-3-yl)butanamide] | 95 |
| CN(C)Cc1cncc(-c2ccc3[nH]nc(-c4nc5c(-c6cncc(F)c6)cncc5[nH]4)c3c2)c1 [Compound 16, 1-(5-(3-(7-(5-fluoropyridin-3-yl)-3H-imidazo[4,5-c]pyridin-2-yl)-1H-indazol-5-yl)pyridin-3-yl)-N,N-dimethylmethanamine] | 164 to 200 |
| c1cc(-c2cncc3[nH]c(-c4n[nH]c5ccc(-c6cncc(CN7CCCC7)c6)cc45)nc23)ccn1 [Compound 163, 7-(Pyridin-4-yl)-2-(5-(5-(pyrrolidin-1-ylmethyl)pyridin-3-yl)-1H-indazol-3-yl)-3H-imidazo[4,5-c]pyridine] | 296 |
| c1cc(-c2cncc3[nH]c(-c4n[nH]c5ccc(-c6cncc(CNCC7CCCC7)c6)cc45)nc23)cs1 [Compound 311, 1-Cyclopentyl-N-((5-(3-(7-(thiophen-3-yl)-3H-imidazo[4,5-c]pyridin-2-yl)-1H-indazol-5-yl)pyridin-3-yl)methyl)methanamine] | 58 |
| CN1CCN(c2cncc3[nH]c(-c4n[nH]c5ccc(-c6cncc(N)c6)cc45)nc23)CC1 [Compound 247, 5-(3-(7-(4-Methylpiperazin-1-yl)-3H-imidazo[4,5-c]pyridin-2-yl)-1H-indazol-5-yl)pyridin-3-amine] | 2 |
| CC(C)CC(=O)Nc1cncc(-c2ccc3[nH]nc(-c4nc5c(N6CCCCC6)cncc5[nH]4)c3c2)c1 [Compound 199, 3-Methyl-N-(5-(3-(7-(piperidin-1-yl)-3H-imidazo[4,5-c]pyridin-2-yl)-1H-indazol-5-yl)pyridin-3-yl)butanamide] | 311 |
| O=C(Nc1cncc(-c2ccc3[nH]nc(-c4nc5c(-c6cccc(F)c6)cncc5[nH]4)c3c2)c1)C1CCCCC1 [Compound 94, N-(5-(3-(7-(3-Fluorophenyl)-3H-imidazo[4,5-c]pyridin-2-yl)-1H-indazol-5-yl)pyridin-3-yl)cyclohexanecarboxamide] | 11 |
| FC1(F)CCN(Cc2cncc(-c3ccc4[nH]nc(-c5nc6c(-c7ccsc7)cncc6[nH]5)c4c3)c2)C1 [Compound 346, 2-(5-(5-((3,3-Difluoropyrrolidin-1-yl)methyl)pyridin-3-yl)-1H-indazol-3-yl)-7-(thiophen-3-yl)-3H-imidazo[4,5-c]pyridine] | 2 |
| CCC(=O)Nc1cncc(-c2ccc3[nH]nc(-c4nc5c(-c6ccccn6)cncc5[nH]4)c3c2)c1 [Compound 174, N-(5-(3-(7-(Pyridin-2-yl)-3H-imidazo[4,5-c]pyridin-2-yl)-1H-indazol-5-yl)pyridin-3-yl)propionamide] | 3 |
| O=C(Nc1cncc(-c2ccc3[nH]nc(-c4nc5c(-c6ccncc6)cncc5[nH]4)c3c2)c1)C1CCCC1 [Compound 170, N-(5-(3-(7-(Pyridin-4-yl)-3H-imidazo[4,5-c]pyridin-2-yl)-1H-indazol-5-yl)pyridin-3-yl)cyclopentanecarboxamide] | 7000 |
| CC(C)CC(=O)Nc1cncc(-c2ccc3[nH]nc(-c4nc5c(-c6ccccc6F)cncc5[nH]4)c3c2)c1 [Compound 11, N-(5-(3-(7-(2-fluorophenyl)-3H-imidazo[4,5-c]pyridin-2-yl)-1H-indazol-5-yl)pyridin-3-yl)-3-methylbutanamide] | 3.5 to 65 |
| CC(C)(C)CC(=O)Nc1cncc(-c2ccc3[nH]nc(-c4nc5c(-c6cccc(F)c6)cncc5[nH]4)c3c2)c1 [Compound 90, N-(5-(3-(7-(3-Fluorophenyl)-3H-imidazo[4,5-c]pyridin-2-yl)-1H-indazol-5-yl)pyridin-3-yl)-3,3-dimethylbutanamide] | 12 |
| CC(C)(C)CC(=O)Nc1cncc(-c2ccc3[nH]nc(-c4nc5c(-c6ccsc6)cncc5[nH]4)c3c2)c1 [Compound 304, 3,3-Dimethyl-N-(5-(3-(7-(thiophen-3-yl)-3H-imidazo[4,5-c]pyridin-2-yl)-1H-indazol-5-yl)pyridin-3-yl)butanamide] | 3 |
| O=C(Nc1cncc(-c2ccc3[nH]nc(-c4nc5c(-c6ccoc6)cncc5[nH]4)c3c2)c1)C1CCCCC1 [Compound 333, N-(5-(3-(7-(Furan-3-yl)-3H-imidazo[4,5-c]pyridin-2-yl)-1H-indazol-5-yl)pyridin-3-yl)cyclohexanecarboxamide] | 26 |
| O=C(Nc1cncc(-c2ccc3[nH]nc(-c4nc5ccncc5[nH]4)c3c2)c1)C1CCCCC1 [Compound 286, N-(5-(3-(3H-Imidazo[4,5-c]pyridin-2-yl)-1H-indazol-5-yl)pyridin-3-yl)cyclohexanecarboxamide] | 569 |
| O=C(Nc1cncc(-c2ccc3[nH]nc(-c4nc5c(-c6cccc(F)c6)cncc5[nH]4)c3c2)c1)C1CC1 [Compound 91, N-(5-(3-(7-(3-Fluorophenyl)-3H-imidazo[4,5-c]pyridin-2-yl)-1H-indazol-5-yl)pyridin-3-yl)cyclopropanecarboxamide] | 2 |
| CCC(=O)Nc1cncc(-c2ccc3[nH]nc(-c4nc5c(-c6ccsc6)cncc5[nH]4)c3c2)c1 [Compound 289, N-(5-(3-(7-(Thiophen-3-yl)-3H-imidazo[4,5-c]pyridin-2-yl)-1H-indazol-5-yl)pyridin-3-yl)propionamide] | 2 |

More lines, now with the values ahead:

| IC50 [nM] | Structure (SMILES) |
| --- | --- |
| 22 | CC(C)CC(=O)Nc1cncc(-c2ccc3[nH]nc(-c4nc5c(-c6cc(F)cc(NCCN(C)C)c6)cncc5[nH]4)c3c2)c1 [Compound 349, N-(5-(3-(7-(3-(2-(Dimethylamino)ethylamino)-5-fluorophenyl)-3H-imidazo[4,5-c]pyridin-2-yl)-1H-indazol-5-yl)pyridin-3-yl)-3-methylbutanamide] |
| 13 to 40 | CN1CCN(c2cncc3[nH]c(-c4n[nH]c5ccc(-c6cccnc6)cc45)nc23)CC1 [Compound 4, 7-(4-methylpiperazin-1-yl)-2-(5-(pyridin-3-yl)-1H-indazol-3-yl)-3H-imidazo[4,5-c]pyridine] |
| 66 | CCC(=O)Nc1cncc(-c2ccc3[nH]nc(-c4nc5c(-c6cccc(F)c6)cncc5[nH]4)c3c2)c1 [Compound 24, N-(5-(3-(7-(3-Fluorophenyl)-3H-imidazo[4,5-c]pyridin-2-yl)-1H-indazol-5-yl)pyridin-3-yl)propionamide] |
| 38 | CN(C)Cc1cncc(-c2ccc3[nH]nc(-c4nc5c(-c6ccccn6)cncc5[nH]4)c3c2)c1 [Compound 186, N,N-Dimethyl-1-(5-(3-(7-(pyridin-2-yl)-3H-imidazo[4,5-c]pyridin-2-yl)-1H-indazol-5-yl)pyridin-3-yl)methanamine] |
| 420 | c1ncc(-c2ccc3[nH]nc(-c4nc5c(N6CCCCC6)cncc5[nH]4)c3c2)cc1CN1CCCC1 [Compound 211, 7-(Piperidin-1-yl)-2-(5-(5-(pyrrolidin-1-ylmethyl)pyridin-3-yl)-1H-indazol-3-yl)-3H-imidazo[4,5-c]pyridine] |
| 1000 | c1cc(-c2cncc3[nH]c(-c4n[nH]c5ccc(-c6cncc(CN7CCCCC7)c6)cc45)nc23)cs1 [Compound 303, 2-(5-(5-(Piperidin-1-ylmethyl)pyridin-3-yl)-1H-indazol-3-yl)-7-(thiophen-3-yl)-3H-imidazo[4,5-c]pyridine] |
| 125 to 146 | CC(C)C(=O)Nc1cncc(-c2ccc3[nH]nc(-c4nc5c(N6CCN(C)CC6)cncc5[nH]4)c3c2)c1 [Compound 2, N-(5-(3-(7-(4-methylpiperazin-1-yl)-3H-imidazo[4,5-c]pyridin-2-yl)-1H-indazol-5-yl)pyridin-3-yl)isobutyramide] |
| 83 to 179 | CN(C)Cc1cncc(-c2ccc3[nH]nc(-c4nc5c(N6CCN(C)CC6)cncc5[nH]4)c3c2)c1 [Compound 3, N,N-dimethyl-1-(5-(3-(7-(4-methylpiperazin-1-yl)-3H-imidazo[4,5-c]pyridin-2-yl)-1H-indazol-5-yl)pyridin-3-yl)methanamine] |
| 3.4 to 9 | CC(C)CC(=O)Nc1cncc(-c2ccc3[nH]nc(-c4nc5c(-c6cccc(F)c6)cncc5[nH]4)c3c2)c1 [Compound 10, N-(5-(3-(7-(3-fluorophenyl)-3H-imidazo[4,5-c]pyridin-2-yl)-1H-indazol-5-yl)pyridin-3-yl)-3-methylbutanamide] |
| 39 | O=C(Nc1cncc(-c2ccc3[nH]nc(-c4nc5c(N6CCCCC6)cncc5[nH]4)c3c2)c1)C1CCC1 [Compound 217, N-(5-(3-(7-(Piperidin-1-yl)-3H-imidazo[4,5-c]pyridin-2-yl)-1H-indazol-5-yl)pyridin-3-yl)cyclobutanecarboxamide] |

Source: US10407425B2, “Indazole inhibitors of the Wnt signal pathway and therapeutic uses thereof” (Samumed, LLC, priority 2012, dated 2019)
